The results in this text go back to patent US10590422B2, “Anticancer therapeutic intervention” (PHYZAT BIOPHARMACEUTICALS, LDA., priority 2017, dated 2020).

The data set deals with ASCT2 mRNA. Put plainly: ASCT2 gene expression (RT-qPCR) after ASCT2 gene silencing in human colon cancer HTC-116 cells. Type of data set: cell-based. The following applies: treatment 6 h. The protocol: SK-HEP-1, T24, HT-1080 and HCT-116 cell lines were maintained in a humidified atmosphere of 5% CO2 at 37° C. SK-HEP-1 cells were grown in RPMI-1640 (Sigma, St. Louis, Mo.) supplemented with 20% fetal bovine serum (FBS) (Gibco, UK), 100 U/mL penicillin G, 0.25 μg/mL amphotericin B, 100 μg/mL streptomycin (Gibco, UK), 25 mM sodium bicarbonate (Merck, Germany) and 25 mM N-2-hydroxyethylpiperazine-N′-2-ethanosulfonic acid (HEPES) (Sigma, St. Louis, Mo.). T24 and HT-1080 cells were grown, respectively, in Dulbecco's Modified Eagle's Medium (DMEM)—high glucose (Sigma, St. Louis, Mo.) and DMEM—low glucose (Sigma, St. Louis, Mo.), supplemented with 10% FBS (Gibco, UK), 100 U/mL penicillin G, 0.25 μg/mL amphotericin B, 100 μg/mL streptomycin (Gibco, UK), 25 mM sodium bicarbonate (Merck, Germany) and 25 mM HEPES (Sigma, St. Louis, Mo.). HCT-116 cells were grown in McCoy's 5A (Sigma, St. Louis, Mo.) supplemented with 10% FBS (Gibco, UK), 100 U/mL penicillin G, 0.25 μg/mL amphotericin B, 100 μg/mL streptomycin (Gibco, UK), 25 mM sodium bicarbonate (Merck, Germany) and 25 mM HEPES (Sigma, St. Louis, Mo.). For all cell lines the medium was changed every 2 days, and cells reached confluence 3-4 days after initial seeding. For subculturing, cells were dissociated with 0.25% trypsin-ethylenediaminetetraacetic acid (EDTA) (Sigma, St. Louis, Mo.), split 1:15 or 1:20 and subcultured in a 21-cm^2 growth area (Sarstedt, Germany).
Total RNA was isolated and purified using the SV Total RNA Isolation System (Promega, USA) according to manufacturer's instructions. RNA quality and concentration were verified in the NanoDrop ND1000 Spectrophotometer (Thermo Scientific, USA), and RNA integrity and genomic DNA contamination were evaluated by agarose gel electrophoresis. Total RNA (1 μg) was converted into cDNA using the Maxima Scientific First Strand cDNA Synthesis Kit for RT-qPCR (Thermo Scientific, USA), according to instructions. The following protocol was used: 1st step, 10 min at 25° C.; 2nd step, 15 min at 50° C.; 3rd step, 5 min at 85° C. cDNA was used for qPCR analysis using Maxima SYBR Green qPCR Master Mix (Thermo Scientific, USA) in the StepOnePlus instrument (Applied Biosystems, USA). QuantiTect Primer Assay for LAT1 and ASCT2 and for the endogenous control gene GAPDH (Quiagen, Germany) were used. The qPCR reaction was performed in 96-well PCR plates (Sarstedt, Germany) as follows: one cycle of 10 min at 95° C., followed by 40 PCR cycles at 95° C. 15 s and 60° C. 60 s. […] No template controls were always evaluated for each target gene. Quantification cycle (Cq) values were generated automatically by the StepOnePlus 2.3 Software and the ratio of the target gene was expressed in comparison to the endogenous control gene GAPDH.
Cells were plated in 24-well (Sarstedt, Germany) or 6-well plates (Sarstedt, Germany) or 96-well plates with black walls clear bottom (BD Biosciences, USA) and incubated 24 h under normal growth conditions. siRNAs against ASCT2 and transfection agent were diluted at desired concentrations and mixed according to transfection agent manufacturer's instructions. The mixture was incubated 20 min at RT for siRNA-complex formation, after which it was added to the cells and incubated at 37° C., 5% CO2. After the incubation period, serum and antibiotic was restored and cells were further incubated at normal conditions for the desired time points until evaluation of ASCT2 activity or ASCT2 expression (immunoblotting and RT-qPCR).
On the technique in general: Quantitative PCR measures a nucleic acid by following its amplification.

As to “278/403/404 (sense UGCCACGGUCGCCUCUGAGAATT; antisense UUCUCAGAGGCGACCGUGGCATT; siRNA; sugars by position and backbone not given here; further chemistry not fully specified)”, the “ASCT2 mRNA relative abundance” value by setting is: (5 or 25 nM siRNA, at 24 h or 48 h, 0.5% Lipofectamine 2000, FIGS. 9B and 9C) “decreased”; (72 h, 0.17% Lipofectamine 2000 or 0.1% Injectin, FIG. 20A) “significantly decreased”.
